According to article PMC10400981, “An expandable, modular de novo protein platform for precision redox engineering” (Proceedings of the National Academy of Sciences of the …, 2023):

Experiments:
m4D2 [1] = target: T1, m4D2; assay: binding titration; 2D/3D NMR of the complex; set-up: species or system synthetic construct
T1 construct: monoheme redesign of 4D2

4D2 = target: T2, 4D2; assay: […] Å crystal structure (MAD); hemin titration by UV/visible; nondenaturing MS; type: binding, synthetic construct
T2 construct: single-chain de novo four-helix bundle, 112 amino acids after TEV cleavage

m4D2 [2] = target: T1, m4D2; assay: hemin titration of apo-m4D2 by UV/visible; nondenaturing MS ([…]); type: binding, synthetic construct

Kd (4D2) | Kd (m4D2 [2]) | Structure (SMILES) | Kd (m4D2 [1])
 |  | CC1=C(C)C2=[N+]3C1=Cc1c(C)c(CCC(=O)O)c4[n]1[Fe-]31[n]3c(c(C)c(C)c3=CC3=[N+]1C(=C4)C(CCC(=O)O)=C3C)=C2 (stereo not drawn) [Fe(III) DMDPIX] | 25 nM
< 5 nM | 4.2 nM | C=CC1=C(C)C2=Cc3c(C=C)c(C)c4[n]3[Fe][n]3c(c(C)c(CCC(=O)O)c3=CC3=NC(=C4)C(C)=C3CCC(=O)O)=CC1=N2 [heme B] | 
